We go through 22 molecules from patent publication US7893304B2, “Hydroquinone long-chain derivatives and/or phenoxy long-chain derivatives, and pharmaceuticals comprising the same” (Meiji Dairies Corporation, priority 2005, dated 2011).

pIC50: −log10 of the molar value. “Also recorded” adds a separate entry of the source.

Test [1] can be described thus: OH radical scavenging ability test (ABTS scavenging assay, Fenton reaction). Further details: key to OH test: +: effective; −: >10 mM. The following applies: for pIC50 / IC50: ABTS competition, OD at 405 nm, 45 minutes at room temperature; for pIC50: read-out: IC50, OH radical scavenging ability; for IC50: read-out: IC50 (μM), OH radical scavenging ability. Here is the method:
Hydroxyl radical scavenging ability was measured for derivatives obtained in preparation processes A, B, and E by the following method using an ABTS (2,2′-azinobis(3-ethylbenzthiazolin-6-sulfonic acid)) scavenging assay.
In this test, hydroxyl radicals were generated in situ by the Fenton reaction. Next, competitive reactions between ABTS and the test compounds took place, and the hydroxyl radicals were scavenged by ABTS to form ABTS^+ radical cations, or were scavenged by the test compounds.
The test compounds and Trolox® were individually dissolved in ethanol and the solutions were adjusted to a final concentration of 10 mM. Each solution was then diluted severalfold to obtain solutions at concentrations ranging from 10 mM to 1 μM.
Next, 180 μl of 1:1 ethanol-water solution was added to a multi-well ELISA plate, and then 30 μl of 1 mM aqueous ABTS solution, 30 μl of 0.5 mM aqueous Fe2SO4 solution, 30 μl of a solution of each test compound in ethanol, and 30 μl of 100 mM aqueous hydrogen peroxide solution were added. The obtained solutions were left to stand for 45 minutes at room temperature, and the absorbance (OD) at 405 nm was measured. OH radical scavenging ability was determined for each test compound based on the results of these measurements. For comparison, the test compound solutions in ethanol were substituted with ethanol alone.

A short description of test [2]: DPPH scavenging ability test (active organic radical species scavenging ability). Further details: key to DPPH test: +: effective; −: >10 mM. The settings on record: for IC50: percent decrease in OD at 550 nm, 400 μM DPPH in ethanol. Here is the method: The ability of the derivatives obtained in preparation processes A and B to scavenge 2,2-diphenyl-1-picrylhydrazyl (DPPH) (active organic radical species scavenging ability) was measured by the following method.
Trolox® and the test compounds were individually dissolved in ethanol and the solutions were adjusted to a final concentration of 10 mM. Next, each solution was diluted severalfold to obtain solutions at concentrations ranging from 10 mM to 1 μM.
100 μl of each of the obtained ethanol solutions was added to a multi-well ELISA plate along with 100 μl of 400 μM DPPH solution in ethanol. The absorbance (optical density, OD) at 550 nm was measured for these solutions.
DPPH scavenging ability was determined for each test compound based on the results of these measurements. For comparison, the test compound solutions in ethanol were substituted with ethanol alone.
The scavenging ability of each test compound is presented as a percent decrease in OD with respect to the absorbance of the comparative sample.
In general terms: DPPH is a stable violet radical that fades when it is reduced.

Test [3] relates to E15 neurons. In words: Axonal growth in primary culture of CNS neurons (morphometric analysis). The class given is cell-based, mouse. Here is the method: Fetal mouse (15 days old) cerebral hemispheres were dissected in cold Gey's balanced salt solution supplemented with glucose to isolate the neocortex. Cells were dispersed by trypsin and mechanical dissociation. Next, the cells were plated at a concentration of 200,000 cells/well onto cover slips coated with 1 μg/ml of poly-L-lysine, and the cells were cultured in a serum-containing medium (Dulbecco's modified Eagle medium, 2 mM glutamine, 1 g/l glucose, 10% fetal calf serum, and penicillin/streptomycin) in 5% CO2 at 37° C. for 24 hours.
On day 2, the medium was substituted with a chemically defined medium (Dulbecco's modified Eagle medium, 2 mM glutamine, 1 g/l glucose, 16 μg/ml putrescine, 52 ng/ml selenium, 10 μg/ml holotransferrin, 5 μg/ml insulin, and 3 ng/ml progesterone), and test compounds were added at different concentrations. The cells were cultured in 5% CO2 at 37° C. for 24 hours.
On day 3, the cells were fixed with 4% formaldehyde in phosphate buffered saline (PBS) for ten minutes. After two washes with PBS, permeation of cells was performed with 100% methanol for five minutes. […]
Photographs were randomly taken (×20 magnification) using an Axiovert 200 microscope (Zeiss) equipped with a digital camera. The axonal length of each neuron was determined using a computer-assisted image analyzer (UTHSCSA Image Tool 3.0).

Test [4] relates to E15 neurons. The following applies: J. Neurochem., 90 (6), 1423-31, 2004; cited from earlier work.

One may read the pIC50 as the negative decadic logarithm of the IC50, by convention in mol/L. In general, IC50 refers to the concentration that gives 50% inhibition. Regarding `COc1ccc(OC)c(CCCCCCCCCCCCO)c1` [Synthesis Example A-(5), 12-(2,5-dimethoxyphenyl)dodecan-1-ol], the pIC50 in test [1] is under 2.00. Besides, the OH test result in test [1] (Table 3, formula (1) compounds) is reported as “− (−: >10 mM)”. Besides, the DPPH test entry in test [2] (Table 3, formula (1) compounds) was “− (−: >10 mM)”. Besides, the IC50 in test [2] was over 10 mM.

`COc1ccc(OC)c(CCCCCCCCCCCCCCO)c1` [Synthesis Example A-(6), 14-(2,5-dimethoxyphenyl)tetradecan-1-ol]: the OH test entry in test [1] (Table 3, formula (1) compounds) was “− (−: >10 mM)”. In addition, in test [2] (Table 3, formula (1) compounds), the DPPH test result is on record as “− (−: >10 mM)”.

As for `COc1ccc(OC)c(CCCCCCCCCCCCCCCO)c1` [Synthesis Example A-(7), 15-(2,5-dimethoxyphenyl)pentadecan-1-ol], in test [1] (Table 3, formula (1) compounds), the OH test result is given as “− (−: >10 mM)”. In addition, the DPPH test result in test [2] (Table 3, formula (1) compounds) is recorded as “− (−: >10 mM)”. For the same molecule, the “axonal growth-promoting activity (in words)” value with E15 neurons [3] (24 hours with compound, listed as QFA15) is given as “the most active compound; also recorded: greater axonal growth-promoting ability at a lower concentration; also recorded: effective axonal growth-promoting agent”. The molecule further returned an axonal growth-promoting effect, value of FIG. 4 micrographs in the test on E15 neurons [3] (control 85 μM, the values are: axonal length) of 155 µm.

As for `COc1ccc(OC)c(CCCCCCCCCCCCCCCCO)c1` [Synthesis Example A-(8), 16-(2,5-dimethoxyphenyl)hexadecan-1-ol], in test [1] (Table 3, formula (1) compounds), the OH test entry was “− (−: >10 mM)”. Moreover, the DPPH test result in test [2] (Table 3, formula (1) compounds) was “− (−: >10 mM)”.

Consider `COc1ccc(OC)c(CCCCCCCCCCCCCCCCCCO)c1` [Synthesis Example A-(9), 18-(2,5-dimethoxyphenyl)octadecan-1-ol], for which the negative logarithm of the IC50 (pIC50) in test [1] is under 2.00. The OH test result in test [1] (Table 3, formula (1) compounds) was “− (−: >10 mM)”. Further, in test [2] (Table 3, formula (1) compounds), the DPPH test entry is “− (−: >10 mM)”. The molecule also returned an IC50 in test [2] of over 10 mM.

In the case of `COc1cc(OC)c(OC)cc1CCCCCCCCCCCCCCO` [Synthesis Example B-(13), 14-(2,4,5-trimethoxyphenyl)tetradecan-1-ol], in test [2] (Table 3, formula (1) compounds), the DPPH test result is given as “− (−: >10 mM)”.

Take `COc1cc(OC)c(OC)cc1CCCCCCCCCCCCO` [Synthesis Example B-(14), 12-(2,4,5-trimethoxyphenyl)dodecan-1-ol]: the IC50 in test [1] is 720 µM; in test [2] it was over 10 mM. In test [2] (Table 3, formula (1) compounds), the DPPH test entry is on record as “− (−: >10 mM)”.

Turning to `COc1cc(OC)c(OC)cc1CCCCCCCCCCCCCCCO` [Synthesis Example B-(15), 15-(2,4,5-trimethoxyphenyl)pentadecan-1-ol], the DPPH test result in test [2] (Table 3, formula (1) compounds) is “− (−: >10 mM)”.

As for `COc1cc(OC)c(OC)cc1CCCCCCCCCCCCCCCCO` [Synthesis Example B-(16), 16-(2,4,5-trimethoxyphenyl)hexadecan-1-ol], in test [2] (Table 3, formula (1) compounds), the DPPH test result is listed as “− (−: >10 mM)”.

For the molecule `COc1cc(OC)c(OC)cc1CCCCCCCCCCCCCCCCCCO` [Synthesis Example B-(17), 18-(2,4,5-trimethoxyphenyl)octadecan-1-ol], the IC50 in test [1] was 720 µM; in test [2] it was over 10 mM. Also, the DPPH test entry in test [2] (Table 3, formula (1) compounds) is reported as “− (−: >10 mM)”.

As to `COc1ccc(OC)c(NCCCCCCCCCCCCCCCCO)c1` [Synthesis Example C-(21), 16-(2,5-dimethoxyphenylamino)hexadecan-1-ol], the OH test entry in test [1] (Table 4, formula (2) compounds) is given as “− (−: >10 mM)”. Besides, the DPPH test entry in test [2] (Table 4, formula (2) compounds) is recorded as “− (−: >10 mM)”.

For the molecule `COc1ccc(OC)c(NCCCCCCCCCCCCCCO)c1` [Synthesis Example C-(22), 14-(2,5-Dimethoxyphenylamino)tetradecan-1-ol], in test [1] (Table 4, formula (2) compounds), the OH test entry is reported as “− (−: >10 mM)”. The DPPH test entry in test [2] (Table 4, formula (2) compounds) is “− (−: >10 mM)”.

In the case of `COc1ccc(OC)c(NCCCCCCCCCCCCO)c1` [Synthesis Example C-(23), 12-(2,5-Dimethoxyphenylamino)dodecan-1-ol], in test [1] (Table 4, formula (2) compounds), the OH test entry was “− (−: >10 mM)”. In addition, in test [2] (Table 4, formula (2) compounds), the DPPH test result is recorded as “− (−: >10 mM)”.

Regarding `COc1ccc(OC)c(NCCCCCCCCCCO)c1` [Synthesis Example C-(24), 10-(2,5-Dimethoxyphenylamino)decan-1-ol], the OH test entry in test [1] (Table 4, formula (2) compounds) is on record as “− (−: >10 mM)”. For the same molecule, in test [2] (Table 4, formula (2) compounds), the DPPH test entry was “− (−: >10 mM)”.

Take `COc1ccc(OC)c(OCCCCCCCCCCCCO)c1` [Synthesis Example D-(29), 12-(2,5-dimethoxyphenoxy)dodecan-1-ol]: the OH test result in test [1] (Table 4, formula (2) compounds) is “− (−: >10 mM)”. Further, in test [2] (Table 4, formula (2) compounds), the DPPH test result was “− (−: >10 mM)”.

Consider `COc1ccc(OC)c(OCCCCCCCCCCCCCCCCO)c1` [Synthesis Example D-(30), 16-(2,5-dimethoxyphenoxy)hexadecan-1-ol], for which the OH test entry in test [1] (Table 4, formula (2) compounds) was “− (−: >10 mM)”. Also, the DPPH test result in test [2] (Table 4, formula (2) compounds) was “− (−: >10 mM)”.

On to `OCCCCCCCCCCCCc1cc(O)ccc1O` [Synthesis Example E-(31), 2-(12-hydroxydodecyl)benzene-1,4-diol], for which the IC50 in test [1] turned out to be 6 µM; in test [2], 0.23 mM.

Consider `OCCCCCCCCCCCCCCCCCCc1cc(O)ccc1O` [Synthesis Example E-(32), 2-(18-hydroxyoctadecyl)benzene-1,4-diol], for which the results for the IC50 in test [1] and in test [2] were 6 µM and 0.23 mM, respectively.

As to `CCCCCCCCCCCCCCCCc1cc(O)ccc1O` [Synthesis Example E-(33), 2-hexadecylbenzene-1,4-diol], the OH test entry in test [1] (Table 4, formula (2) compounds) was “+”. Further, the DPPH test entry in test [2] (Table 4, formula (2) compounds) is recorded as “+”. The IC50 in test [2] was 1.53 mM.

For the molecule `OCCCCCCCCCCCCCCCc1cc(O)ccc1O` [Synthesis Example E-(34), 2-(15-hydroxypentadecyl)benzene-1,4-diol], the IC50 in test [1] stood at 6 µM; in test [2], 0.23 mM.

On to `Cc1c(C)c2c(c(C)c1O)CCC(C)(C(=O)O)O2` (stereo not shown) [Trolox ®, reference compound], for which the IC50 in test [1] turned out to be 600 µM; in test [2], 0.23 mM.

In the case of `CC1=C(CCCCCCCCCCCCCCCO)C(C)(C)CCC1=O` [tCFA15, 3-(15-hydroxypentadecyl)-2,4,4-trimethyl-2-cyclohexen-1-one], in the test on E15 neurons [4], the “axonal growth-promoting activity in a previous study (in words)” value was “showed similar results”.
